# Laboratory results taken from US11883526B2 (priority 2019, dated 2024).
# How the values were obtained:
# subjects with TRD [1] = settings: human, in vivo, other: intranasal
# Procedure: (§1) The Clinician Administered Dissociative States Scale (CADSS) was measured prior to the start of each dose, at 40 minutes, and 1.5 hours postdose.
# glutamate NMDA receptor = settings: in vitro; cited from earlier work
# [2] = test system: patients with treatment-resistant depression (TRD); assay: CGI-S (Example 7); format: in vivo, human
# Procedure: Overall illness severity was assessed on the Clinical Global Impression of Severity (CGI-S) scale (Guy, “ECDEU Assessment Manual for Psychopharmacology—Revised (DHEW Publ No ADM 76-338)”, Rockville, Md.: U.S. Department of Health, Education, and Welfare, Public Health Service, Alcohol, Drug Abuse, and Mental Health Administration, NIMH Psychopharmacology Research Branch, Division of Extramural Research Programs; 1976, pp 218-222). Participants assessed their severity of anxiety on the Generalized Anxiety Disorder 7-item (GADS-7) Scale (See, Tables 157 and 158). See, Spitzer, “A brief measure for assessing generalized anxiety disorder—the GAD-7”, Arch. Intern. Med., 2006, 166(10):1092-1097.
# [3] = 14-day study, 54 mg/day intranasal
# Procedure: This study includes a single dose and 14-day repeated dose neurotoxicity studies with intranasally administered esketamine in female rats 12 to 14 weeks of age. These studies were conducted to investigate whether single or repeated intranasal administrations of esketamine induced neurodegenerative changes in the rat brain. The study results were used to estimate an esketamine exposure-based safety margin compared with the maximum dose of esketamine administered intranasally to depressed adult patients in clinical trials.
# Each group of main study animals consisted of 12 female rats. Four satellite animals were added to the esketamine HCl-dosed groups of main study animals for TK purposes. The plasma exposure to esketamine was measured in these animals on the first and the last day of dosing at various time points up to and including 24 hours after the first instillation.
# [4] = test system: subjects with MDD at imminent risk for suicide; format: in vivo, human; settings: 84 mg
# Procedure: Transient blood pressure increases peaked for the esketamine group at approximately 40 minutes post dose with the maximum mean increases (across all dosing days) in systolic BP being 8.7 in the placebo group and 16.7 in the esketamine 84 mg group. The maximum mean increases (across all dosing days) in diastolic BP were 7.6 in the placebo group and 11.9 in the esketamine 84 mg group. […] See, FIGS. 46 and 47.
# subjects with TRD [5] = settings: human, in vivo, other: intranasal; remark: listed apart in the source
# Procedure: as §1
# subjects with TRD [6] = settings: human, in vivo, other: intranasal; remark: listed apart in the source
# Procedure: FIGS. 53 and 54 present means for blood pressure over time by treatment group in the maintenance phase.
# Transient blood pressure increases peaked for the esketamine group at approximately 40 minutes post dose and returned closer to predose levels by 1.5 hours post dose.
# [7] = test system: elderly subjects with TRD; format: in vivo, human; settings: each dosing day
# Excerpt: The Modified Observer's Assessment of Alertness/Sedation (MOAA/S) was used to measure treatment-emergent sedation with correlation to levels of sedation defined by the American Society of Anesthesiologists (ASA) continuum. The MOAA/S scores range from 0 (No response to painful stimulus; corresponds to ASA continuum for general anesthesia) to 5 (Readily responds to name spoken in normal tone [awake]; corresponds to ASA continuum for minimal sedation). The proportion of subjects with sedation was <4% for the esketamine group for each dosing day.
# [8] = test system: patients with treatment-resistant depression (TRD); assay: CADSS (Example 7); set-up: species or system human; settings: in vivo
# Procedure: Adverse events were monitored throughout the study. Other safety assessments (i.e., laboratory tests, vital signs, physical examination) were performed at pre-specified time points. Vital signs, the Clinician Administered Dissociative States Scale (CADSS; Bremner, “Measurement of dissociative states with the clinician-administered dissociative states scale (CADSS)”, J. Traumatic Stress, 1998, 11(1):125-136), and the 4-item positive symptom subscale from the Brief Psychiatric Rating Scale (BPRS; Overall, “The Brief Psychiatric Rating Scale. Psychological Reports”, 1962, 10:799-812) were assessed pre-dose, at 40 minutes, and 2 hours post-dose.
# [9] = test system: subjects with MDD at imminent risk for suicide; assay: Beck Scale for Suicidal Ideation, BSS ([…]2001); format: in vivo, human; settings: 84 mg; for BSS total score change from baseline, Diff. of LS Means (minus Placebo): ANCOVA LOCF, ITT
# Procedure: The BSS is a 21-item self-reported instrument to detect and measure the severity of suicidal ideation in adults and adolescents aged 17 years and older. The BSS total score represents the severity of suicide ideation, and it is calculated by summing the ratings of the first 19 items; the total score ranges from 0 to 38, with a higher score representing greater suicide ideation. Increasing scores reflect increases in suicidal risk.
# Procedure for adult subjects with TRD: Blood pressure and pulse/heart rate measurements were assessed supine with a completely automated device. Manual techniques were used only if an automated device is not available. Blood pressure and pulse/heart rate measurements were preceded by at least 5 minutes of rest in a quiet setting without distractions (e.g., television, cell phones).
# Descriptive statistics of temperature, pulse/heart rate, respiratory rate, pulse oximetry, and blood pressure (systolic and diastolic) (supine) values and changes from baseline were summarized at each scheduled time point. The percentage of subjects with values beyond clinically important limits were summarized.
structure (smiles),measurement,setting,value
"CN[C@]1(c2ccccc2Cl)CCCCC1=O [esketamine, (S)-2-(2-chlorophenyl)-2-(methylamino)cyclohexanone]",maximum mean increase in diastolic BP,adult subjects with TRD; across all dosing days,8.1
same,time blood pressure returned to normal range,adult subjects with TRD; double-blind phase,90 min
same,time of peak of transient blood pressure increase post dose,adult subjects with TRD; double-blind phase,approximately 40 minutes
same,dissociative and perceptual change symptoms (CADSS) resolved by,subjects with TRD [1],≤ 1.5 hours post dose
same,affinity for the glutamate NMDA receptor relative to R-ketamine,glutamate NMDA receptor,3 to 4 fold
same,"CGI-S change from baseline, Median Change (Range)","[2]; Period 1 (first day to day 8), 28 mg","−1.0 (−2, 1)"
same,"CGI-S change from baseline, Median Change (Range)","[2]; Period 1 (first day to day 8), 56 mg","−1.0 (−3, 0)"
same,"CGI-S change from baseline, Median Change (Range)","[2]; Period 1 (first day to day 8), 84 mg","−0.5 (−4, 0)"
same,"CGI-S at end point, Median (Range)","[2]; Period 1, 28 mg","4.0 (3, 5)"
same,"CGI-S at end point, Median (Range)","[2]; Period 1, 56 mg","4.0 (1, 5)"
same,"CGI-S at end point, Median (Range)","[2]; Period 1, 84 mg","4.0 (1, 6)"
same,"CGI-S change from baseline, Median Change (Range)","[2]; Period 2 (first day to day 8 of period), 28 mg","−1.0 (−1, 0)"
same,"CGI-S change from baseline, Median Change (Range)","[2]; Period 2 (first day to day 8 of period), 56 mg","−1.0 (−2, 0)"
same,"CGI-S change from baseline, Median Change (Range)","[2]; Period 2 (first day to day 8 of period), 84 mg","−1.0 (−2, 0)"
same,"CGI-S at end point, Median (Range)","[2]; Period 2, 28 mg","4.0 (3, 5)"
same,"CGI-S at end point, Median (Range)","[2]; Period 2, 56 mg","5.0 (4, 6)"
same,"CGI-S at end point, Median (Range)","[2]; Period 2, 84 mg","4.0 (3, 5)"
same,AUC-based safety margin compared with the maximum 84 mg clinical dose,[3],~11 fold
same,Cmax-based safety margin compared with the maximum 84 mg clinical dose,[3],approximately 17 fold
same,blood pressure returning to normal range by,[4],≤ 2 hours post dose
same,maximum mean increase in diastolic BP,[4]; across all dosing days,11.9
same,maximum mean increase in systolic BP,[4]; across all dosing days,16.7
same,dissociative/perceptual change symptoms (CADSS) resolved by,subjects with TRD [5],≤ 1.5 hours post dose
same,blood pressure returned closer to predose levels by,subjects with TRD [6],≤ 1.5 hours post dose
same,time of peak of transient blood pressure increase post dose,subjects with TRD [6],approximately 40 minutes
same,proportion of subjects with sedation (post dose MOAA/S score ≤3),[7],< 4%
same,perceptual changes/dissociative symptoms (CADSS) peaked around,[8],30 to 40 min
same,perceptual changes/dissociative symptoms (CADSS) resolved by,[8],≤ 2 h
same,change in BSS total score vs placebo,"[9]; Day 1 4-hours postdose, Day 2 (DB), End Point (DB)",no statistically significant differences
same,"BSS total score change from baseline, Diff. of LS Means (minus Placebo)",[9]; Day 1(DB): 4 H,−2.3
same,"BSS total score change from baseline, Diff. of LS Means (minus Placebo)",[9]; Day 2(DB),−1.9
same,"BSS total score change from baseline, Diff. of LS Means (minus Placebo)",[9]; End Point(DB),−1.7
